In article PMC8043168, “Tribolium castaneum defensin 1 kills Moraxella catarrhalisin an in vitro infection model but does not harm commensal bacteria” (Virulence, 2021):
≈ marks a conversion by molar mass, not a printed value. Ends that are not written are not given here.

System: M. catarrhalis
Format: cell-based, Moraxella catarrhalis
Details: 12 h
Experimental: Colonies of M. catarrhalis were grown on sheep blood agar plates for 12 h at 37°C and 5% CO2 before transfer to brain heart infusion (BHI) medium (Carl Roth, Karlsruhe, Germany) at an initial concentration of 1.6 × 10^7 cells/ml (OD600 = 0.08) as determined using an Ultraspec 10 cell densitometer (Amersham BioSciences, Little Chalfont, UK). Bacteria were cultivated in a shaking incubator at 37°C until the concentration reached 1.2 × 10^8 cells/ml (OD600 = 0.6) and then diluted to 2 × 10^6 cells/ml (OD600 = 0.011). To establish the optimal concentration ranges for AMP activity, defensin 1 was prepared as a two-fold dilution series from 12.5 µM to 1.56 µM and was added to the bacterial cultures, which were incubated as above for a further 16 h. Untreated cultures were used as controls. The OD600 was measured automatically at 30-min intervals using an Infinite M200 Pro plate reader (Tecan Life Sciences, Männedorf, Switzerland). […] They were cultivated for a further 15 h at 37°C and 5% CO2 in serial dilution before manual counting of the colonies on each plate.
Table S1. Detailed characterization of tested AMPs. M.c. were grown to an Optical Density (OD) 600nm of 0.6 in Brain Heart Infusion (BHI) Medium.
Upon dilution to OD600nm= 0.01, M.c. were incubated with declining amounts of indicated AMPs (25 μM to 0.048 μM at halving intervals) at 37°C with 5% CO2.
OD600nm was measured at 30 min intervals to establish the minimal inhibitory concentration (MIC). pI = isoelectric point, MW = molecular weight in kiloDalton.
MIC AMP name AMP class Organism Amino Acid Sequence pIMWPurity Retention time [min] modification
0.195 µM Cecropin A α-helical Hyalophora cecropia […] 10.75 4.00 91.06 7.30 n-term. amidation
0.39 µM Sarcotoxin IA α-helical Sarcophaga peregrina […] 11.07 4.16 91.37 9.37 n-term. amidation
~ 25µM Stomoxyn α-helical Stomoxys calcitrans […] 11.26 4.40 95.34 10.08 n-term. amidation
~ 25µM Spinigerin linear Pseudacanthotermes spiniger […] 11.07 3.00 96.23 12.45 none
>25µM Apidaecin Ia proline-rich Apis mellifera GNNRPVYIPQPRPPHPRI 11.71 2.11 92.98 16.91 none
>25µM Drosocin proline-rich Drosophila melanogaster GKPRPYSPRPTSHPRPIRV 12.01 2.20 92.86 11.65 none
>25µM Pyrrhocoricin proline-rich Pyrrhocoris apterus […] 10.27 2.34 93.17 11.38 none
>25 µM Metalnikowin-1 proline-rich Palomena prasina […] 9.98 1.84 92.85 13.36 none
>25 µM Metalnikowin-2A proline-rich Palomena prasina […] 9.98 1.84 92.39 10.85 none
>25 µM Metchnikowin-1 proline-rich Drosophila melanogaster […] 10.74 3.03 99.06 11.50 none
>25 µM Metchnikowin-2 proline-rich Drolophila melanogaster […] 11.54 3.04 97.16 11.46 none
12.5 µM Defensin 1 disulfide stabilized Tribolium castaneum […] 9.7 4.83 90.53 18.41 none
~ 25 µM Cecropin-like α-helical Lucilia sericata[…] 10.35 6.66 90.28 12.01 none
0.195 µM Cecropin α-helical Galleria mellonella […] 10.21 4.21 93.61 12.33 n-term. amidation
0.37 µM Cecropin α-helical Lucilia sericata […] 10.56 4.26 94.31 10.83 n-term. amidation
12.5 µM Stomoxyn α-helical Lucilia sericata […] 10.73 4.38 90.37 13.35n-term. amidation n-term.
1.56 µM Cecropin(Sarcotoxin) α-helical Eristalis tenax […] 10.56 4.14 90.80 9.76 none

Row | Molecule | MIC (minimal inhibitory concentration)
1 | DLRFLYPRGKLPVPTPPPFNPKPIYIDMGNRY [Lebocin-1] | > 25 µM
2 | FVPYNPPRPGQSKPFPSFPGHGPFNPKIQWPYPLPNPGH [Abaecin] | > 25 µM
3 | GFRKRFNKLVKKVKHTIKETANVSKDVAIVAGSGVAVGAAMG-NH2 [Stomoxyn (Lucilia sericata)] | 12.5 µM
4 | GGLKKLGKKLEGAGKRVFNAAEKALPVVAGAKALRK [Cecropin A (Aedes aegypti)] | 1.56 µM
5 | GKPRPYSPRPTSHPRPIRV [Drosocin] | > 25 µM
6 | GNNRPVYIPQPRPPHPRI [Apidaecin Ia] | > 25 µM
7 | GRPNPVNNKPTPHPRL [Formaecin-1] | > 25 µM
8 | HRHQGPIFDTRPSPFNPNQPRPGPIY [Metchnikowin-1] | > 25 µM
9 | HRRQGPIFDTRPSPFNPNQPRPGPIY [Metchnikowin-2] | > 25 µM
10 | HVDKKVADKVLLLKQLRIMRLLTRL [Spinigerin] | ~ 25 µM
11 | KWKIFKKIEKAGRNIRDGIIKAGPAVSVVGEAATIYKTG-NH2 [Cecropin (Galleria mellonella)] | 0.195 µM
12 | KWKLFKKIEKVGQNIRDGIIKAGPAVAVVGQATQIAK-NH2 [Cecropin A (Hyalophora cecropia)] | 0.195 µM
13 | VDKPDYRPRPRPPNM [Metalnikowin-1] | > 25 µM
14 | VDKPDYRPRPWPRPN [Metalnikowin-2A] | > 25 µM

Same assay, conditions: M. catarrhalis grown to OD600 0.6 in BHI, diluted to OD600 0.01; AMP 25 µM to 0.048 µM at halving intervals; 37°C, 5% CO2; OD600 every 30 min

Row | Molecule | MIC (minimal inhibitory concentration)
15 | CC[C@H](C)[C@H](NC(=O)CNC(=O)[C@H](CC(C)C)NC(=O)CNC(=O)[C@H](CCC(N)=O)NC(=O)[C@@H](NC(=O)[C@@H](NC(=O)[C@H](C)NC(=O)[C@H](CC(=O)O)NC(=O)[C@H](CCCNC(=N)N)NC(=O)[C@@H](NC(=O)[C@H](Cc1c[nH]cn1)NC(=O)[C@H](CCC(N)=O)NC(=O)CNC(=O)[C@@H](NC(=O)[C@H](CCCNC(=N)N)NC(=O)[C@H](CCC(=O)O)NC(=O)[C@@H](NC(=O)[C@H](CCCCN)NC(=O)[C@H](CCCCN)NC(=O)CNC(=O)[C@@H](NC(=O)[C@H](CCCCN)NC(=O)[C@H](CCCCN)NC(=O)[C@H](CC(C)C)NC(=O)[C@H](Cc1c[nH]c2ccccc12)NC(=O)CN)[C@@H](C)CC)[C@@H](C)CC)C(C)C)[C@@H](C)O)[C@@H](C)O)[C@@H](C)CC)C(=O)N[C@@H](C)C(=O)N[C@@H](CCC(N)=O)C(=O)N[C@@H](CCC(N)=O)C(=O)N[C@@H](C)C(=O)N[C@@H](C)C(=O)N[C@@H](CC(N)=O)C(=O)N[C@H](C(=O)N[C@@H](C)C(=O)N[C@@H](C)C(=O)N[C@H](C(=O)N[C@@H](C)C(=O)N[C@@H](CCCNC(=N)N)C(N)=O)[C@@H](C)O)C(C)C [Sarcotoxin IA] | 0.39 µM (≈ 1.62 µg/mL)
16 | GFLKKIGKKLEGAVQRTRDATIQTIAVAQAAANVAATAKQ [Cecropin(Sarcotoxin)] | 1.56 µM
17 | GWLKKIGKKIERVGQHTRDATIQTIGVAQQAANVAATLKG-NH2 [Sarcotoxin 1 C] | 0.37 µM
18 | RGFRKHFNKLVKKVKHTISETAHVAKDTAVIAGSGAAVVAAT-NH2 [Stomoxyn (Stomoxys calcitrans)] | ~ 25 µM
19 | SIGSAFKKALPVAKKIGKAALPIAKAALP [Ceratotoxin] | > 25 µM
20 | VDKGSYLPRPTPPRPIYNRN [Pyrrhocoricin] | > 25 µM

System: not given
Details: cited from earlier work
Source text: We furthermore tested the effect of defensin 1 and sarcotoxin 1 C on the commensals E. faecalis and E. coli. Selectivity of AMPs may provide an important therapeutic advantage over broad-spectrum antibiotics because AMPs targeting pathogens but not commensals would avoid the common side effects of antibiotic therapy. […] Sarcotoxin 1 C was previously shown to inhibit 90% of clinical multidrug-resistant isolates of Ent ...

Row | Molecule | broad-panel off-target profile | cytotoxicity | in vitro therapeutic index
21 | GWLKKIGKKIERVGQHTRDATIQTIGVAQQAANVAATLKG-NH2 [Sarcotoxin 1 C] | inconspicuous | no cytotoxicity | good

System: not given
Details: cited from earlier work
Remark: another data set of the same source

Row | Molecule | cardiotoxicity
22 | GWLKKIGKKIERVGQHTRDATIQTIGVAQQAANVAATLKG-NH2 [Sarcotoxin 1 C] | no cytotoxicity or cardiotoxicity

System: mice
Details: dose of 10 mg/kg; cited from earlier work

Row | Molecule | acute toxicity in mice
23 | GWLKKIGKKIERVGQHTRDATIQTIGVAQQAANVAATLKG-NH2 [Sarcotoxin 1 C] | no acute toxicity
